Data reported in patent publication US20050220718A1, “Stable pharmaceutical solution formulations for pressurized metered dose inhalers” (Chiesi Farmaceutici S.p.A., priority 2004, published 2005).

Tests used:
[1] = Stability study of TA 2005 HFA 134a formulation with 15.2M phosphoric acid, upright and inverted cans at 40° C. and 75% relative humidity; type: physicochemical; conditions: TA 2005 1 μg/63 μl, 15% w/w ethanol, phosphoric acid 15.2M 0.001 to 0.0027% w/w
Experimental: The formulation of Table 3 (120 actuations canister, overage of 30 actuations) was filled in aluminum canisters having the internal surface coated with teflon and fitted with commercial valves having a 63 μl metering chamber. A stability study was carried out by storing the formulation in upright and inverted cans at 40° C. and 75% relative humidity.

[2] = Stability of TA 2005 + budesonide HFA 134a compositions with phosphoric acid, 40° C. and 75% relative humidity; type: physicochemical; conditions: TA 2005 1 μg + budesonide 200 μg/actuation, phosphoric acid 85% 0.0032 or 0.0064% w/w, 0.15% w/w water
Experimental: The two compositions containing TA 2005 and budesonide as active ingredients and two different concentrations of phosphoric acid as shown in Table 4 were prepared.
Volume of the valve: 63 μl; strength: TA 2005 1 μg+budesonide 200 μg/actuation; no. of actuations: 120 (34 overfilling doses).
The two active ingredients in the compositions were stable after three months storage at 40° C. and 75% relative humidity, giving residual percent amounts of at least 95% TA 2005 and about 100% of Budesonide.

[3] = 4 μg per actuation, HCl stabilized, stored upright at 5° C., after nine months (WO 03/074025); cited from earlier work
[4] = Apparent pH (acidity function pH') of acidified TA 2005 solutions; type: physicochemical; conditions: TA 2005 3.5 μg/50 μl in HFA 134a
Description: The attribution ‘apparent’ is used as pH is indeed characteristic of aqueous liquids where water is the dominant component (Mole Fraction >0.95). […] Although the Nernst equation with respect to EMF applies and the pH-meter glass electrode system will generate a variable milli-volt output according to proton concentration and vehicle polarity, the “pH” meter reading is not a true pH value. The meter reading represents an apparent pH or acidity function (pH′).
Rather concentrated, i.e., more than about 10 M, preferably more than about 12 M, and most preferably about 15 M phosphoric acid is used to adjust the apparent pH. In the examples that follow 85%, i.e., 15.2M phosphoric acid has been used. The amount of acid to be added to reach the desired apparent pH will be pre-determined in the model vehicle reported before
1.0 M hydrochloric acid was added incrementally to 50 ml of HFA 43-10MEE (Vertrel XF) containing 20% w/w ethanol and the pH′ was measured after each aliquot of acid.
(§1) A solution of TA 2005 (3.5 μg/50 μl) was prepared by dissolving 0.84 mg of the active ingredient in HFA 134a containing 12% w/w ethanol and 1.0% w/w of isopropyl myristate. pMDI coated cans containing 1.0, 1.4, and 1.8 μl of 0.08 M hydrochloric acid (corresponding respectively to an apparent pH of about 4.8, 3.2, and 2.9) were set down on storage, upright at 50° C., and samples taken for analysis of TA 2005 contents at appropriate intervals.

[5] = Stability of acidified TA 2005-HFA 134a solutions in cans coated with a fluorocarbon polymer, stored upright at 50° C.; type: physicochemical
Experimental: Comparative Example 1 (corresponding to Example 7 of WO 01/89480). Stability of acidified TA 2005-HFA 134a solutions in cans coated with a fluorocarbon polymer.
as §1
Each value is expressed as percent nominal drug concentration.

[6] = Stability study of TA 2005 HFA 134a formulations with 0.1M hydrochloric acid, upright cans at 40° C. and 75% relative humidity; type: physicochemical; conditions: TA 2005 1 μg/63 μl, 15% w/w ethanol
Experimental: Two aluminum canisters having the internal surface coated with teflon and fitted with commercial valves having a 63 μl metering chamber were filled with the following formulations shown in Table 2. A stability study was carried out by storing the formulations in upright cans at 40° C. and 75% relative humidity.

[7] = HFA propellant and ethanol, conventional aluminum or plastic coated glass cans; 40° C., 75% relative humidity, one month (WO 99/65460); cited from earlier work

| SMILES | residual percent amount of TA 2005 after three months of storage [1] | residual percent amount after three months storage [2] | TA 2005 assay [3] | apparent pH ([4]; 1.0 μl of 0.08 M hydrochloric acid per can) | apparent pH ([4]; 1.4 μl of 0.08 M hydrochloric acid per can) | apparent pH ([4]; 1.8 μl of 0.08 M hydrochloric acid per can) | TA 2005 content, percent nominal drug concentration, 50° C.; 22 days upright ([5]; 1.0 μl 0.08M HCl per can) [%] | TA 2005 content, percent nominal drug concentration, 50° C.; 83 days upright ([5]; 1.0 μl 0.08M HCl per can) [%] | TA 2005 content, percent nominal drug concentration, Initial ([5]; 1.0 μl 0.08M HCl per can, TA 2005 3.5 μg/50 μl, 12% w/w ethanol, 1.0% w/w isopropyl myristate) [%] | TA 2005 content, percent nominal drug concentration, 50° C.; 22 days upright ([5]; 1.4 μl 0.08M HCl per can) [%] | TA 2005 content, percent nominal drug concentration, 50° C.; 83 days upright ([5]; 1.4 μl 0.08M HCl per can) [%] | TA 2005 content, percent nominal drug concentration, Initial ([5]; 1.4 μl 0.08M HCl per can) [%] | TA 2005 content, percent nominal drug concentration, 50° C.; 22 days upright ([5]; 1.8 μl 0.08M HCl per can) [%] | TA 2005 content, percent nominal drug concentration, 50° C.; 83 days upright ([5]; 1.8 μl 0.08M HCl per can) [%] | TA 2005 content, percent nominal drug concentration, Initial ([5]; 1.8 μl 0.08M HCl per can) [%] | percent amount of TA 2005 after three months of storage ([6]; 0.1M HCl 0.018% w/w) [%] | percent amount of TA 2005 after three months of storage ([6]; 0.1M HCl 0.027% w/w) [%] | loss of drug [7] |
| --- | --- | --- | --- | --- | --- | --- | --- | --- | --- | --- | --- | --- | --- | --- | --- | --- | --- | --- |
| COc1ccc(C[C@@H](C)NC[C@H](O)c2ccc(O)c3[nH]c(=O)ccc23)cc1.Cl [TA 2005, 8-hydroxy-5-[(1R)-1-hydroxy-2-[[(1R)-2-(4-methoxyphenyl)-1-methylethyl]amino]ethyl]-2(1H)-quinolinone hydrochloride] | up to 98% | at least 95% | higher than 95% | about 4.8 | ~3.2 | ~2.9 | 98.3 | 99.4 | 100.0 | 98.2 | 98.8 | 100.0 | 90.2 | 88.1 | 100.0 | 73 | 77 |  |
| COc1ccc(C[C@@H](C)NC[C@H](O)c2ccc(O)c(NC=O)c2)cc1.COc1ccc(C[C@@H](C)NC[C@H](O)c2ccc(O)c(NC=O)c2)cc1.O=C(O)/C=C/C(=O)O [formoterol fumarate] |  |  |  |  |  |  |  |  |  |  |  |  |  |  |  |  |  | about 10% |
